Assays:
[1] = system: RORγt-dependent inflammation; experiment: RORγt/Th17-dependent inflammation in vivo, overall statement (acute and chronic settings); details: with IC50 coverage alone (same level of response)
[2] = system: MOG35-55-induced EAE in C57BL/6 mice; experiment: Experimental autoimmune encephalomyelitis (EAE) model; type: in vivo, mouse; details: for EAE clinical score (0-5): vehicle peak 3.08 ± 0.28
Procedure: EAE studies were conducted at Hooke Laboratories. WT female C57BL/6 mice (Taconic Labs) 9 weeks of age were inoculated on day 0 with MOG35-55 peptide (Hooke Kit™ MOG35-55/CFA Emulsion PTX) (EK-2110, Hooke Laboratories, Lawrence MA) followed by intraperitoneal (IP) injections of pertussis toxin at 2 and 24 hours. Mice were treated twice daily (BID, starting at day 1) per os (PO) with vehicle (0.5% MC/0.25% Tween80) or RORγt inhibitors at indicated doses. FTY720 (Gilenya) was dosed once daily (QD) at 3 mg/kg starting at day 1. EAE clinical scores were evaluated daily and scored from 0–5 according to Hooke Lab EAE scoring guidelines http://hookelabs.com/services/cro/eae/MouseEAEscoring.html. Mean clinical scores & body weight loss were assessed and statistical significance calculated by Wilcoxon’s non-parametric or 2-tailed Student’s t-test, respectively. All studies performed were approved in accordance with the Institutional Animal Care and Use Committee of Bristol Myers Squibb and complied according to Bristol Myers Squibb guidelines.

[3] = system: IMQ-induced skin inflammation in Balb/c mice; experiment: Imiquimod (IMQ)-induced skin inflammation model; type: in vivo, mouse; details: day 4; for ear thickness: control-treated 0.17 ± 0.002 mm
Procedure: For IMQ-induced skin inflammation, wild-type (WT) Balb/c female mice, 5–8 weeks of age, were purchased from Charles River Laboratories. All mice were housed in pathogen-free conditions at Bristol Myers Squibb (Cambridge, MA). Aldara cream containing 5% imiquimod (Patterson Veterinary Supply, Inc; Devens, MA) was applied to the ears daily (11–14 mg) for 3 days. Mice were treated twice daily (BID) on days 1–4 per os (PO) with vehicle (0.5% methylcellulose/0.25% Tween80) or RORγt inhibitors at indicated doses immediately prior to Aldara application. Ear thickness was measured using micro-calipers. Tissues were harvested on day 4, 2 hours following the last compound dose. Naïve mice are completely untreated, receiving neither control vehicle for IMQ nor Compound.
For RNA isolation & gene expression, ears are collected on day 4 in RNAlater (Qiagen) and stored at 4°C until processed. Ears were homogenized using Procellys 24 homogenizer & hard tissue homogenizing beads (Bertin Instruments), 2 cycles of 30 seconds @ 6000 rpm in RLT lysis buffer according to manufacturer’s instructions. RNA was isolated using RNAeasy Plus MiniPrep columns (Qiagen) and cDNA generated using SuperScript VILO cDNA Synthesis kit (Invitrogen). Gene expression was quantified using TaqMan Fast Master Mix & and TaqMan FAM-MGB probe sets (Applied Biosystems): Gapdh, Mm99999915_g1, Il17a, Mm00439618_m1, Il17f, Mm00521423_m1, Il22, Mm01226722_g1 & Bclxl, Mm00437783_m1. QPCR reactions were run on QuantStudio 7 instrument. Relative quantification and fold changes were calculated using ddCT values against Gapdh and normalized to control-treated animals. For PDAC xenografts, RNA was isolated from tumor sections using Qiagen RNeasy kit (cat#74106), then cDNA was prepared using 2 μg of RNA and the high capacity RNA to cDNA kit (Applied Biosystems, cat#4387406) as per manufacturer’s instructions. Biomarker expression was determined using Taqman gene expression probes (S1 Table) and Universal master mix (ThermoFisher Scientific cat#4305719) with expression levels normalized to Gapdh.
For cytokine production, ears are removed, split in half using forceps and floated, dermis side-down, in DMEM media (Gibco) and incubated at 37° C for 24 hours. Following incubation, media was removed and cytokine production assessed by Luminex assay (Bio-Rad Laboratories).

[4] = Intra-tumoral compound concentration, KP/C mouse model; type: in vivo; details: 16 hours post dosing, mean ± SD
Procedure: In the IMQ-induced inflammation model, whole blood (300–500 μL) was collected and centrifuged (1000 g x 10 min) at 20° C to obtain plasma samples. […] Plasma standard curves were prepared by adding each test compound in to mouse plasma and serial diluting to desired concentration. Blank tumor homogenate and blank plasma was add to plasma standards and tumor homogenate samples, respectively, at 1:1 (v:v) ratio for matrix match of tumor sample analysis. An aliquot of 50 μL of each plasma sample, each tumor sample and each corresponding standards was added to 200 μL of acetonitrile with 100 ng/mL of carbutamide (Sigma Aldrich, St. Louis, MO), internal standard (IS), for protein precipitation, then filtered through a 96-well Orochem filtration plate (Orochem Technologies Inc., Naperville IL). Each extracted test compound in resultant supernatant was analyzed with appropriate liquid chromatography column eluting to a Sciex QTRAP 6500+ LC/MS/MS system (Applied Biosystems, Foster City, CA). Each analyte was characterized by Turbo IonSpray ionization multiple reaction monitoring (MRM). Quantitative drug concentrations were determined by standard calibration curve analysis, using linear fitting with 1/x^2 weighted plot of the analyte/IS peak area ratio vs analyte concentration. […]

[5] = system: Bclxl expression in the thymus; experiment: Bclxl expression in thymus after oral dosing (QPCR); type: in vivo, mouse; details: 100 mg/kg PO, C57Bl/6 female mice; S5 Fig
Procedure: Supplementary file pone.0248034.s009.tif: S5 Fig RORγt inhibitors reduce Bclxl expression in thymus of rodents. C57Bl/6 female mice were dosed PO with 100 mg/kg Compound 1, 2 or 3. Thymic tissues were collected from separate cohorts at 2, 8, 16 and 24 hours post-dose (n = 3 mice/timepoint). RNA was extracted from thymic tissues and Bclxl expression measured by QPCR. […] Time zero (‘0’) used as normalization timepoint and set to 1.0 RQ and mean set at 100% for % inhibition calculation. One-way ANOVA with Bonferroni correction for multiple comparisons used for statistical significance calculations. (TIF) Click here for additional data file.

O=C(O)[C@@H]1CCC(c2nn(C(=O)c3c(Cl)cccc3C(F)(F)F)c3cccc(F)c23)=C[C@H]1O [Compound 3]
inhibition of Th17-dependent responses [1]: ~ 45% | EAE clinical score (0-5) ([2]; 3 mg/kg BID PO): 2.79 ± 0.25 | EAE clinical score (0-5) ([2]; 10 mg/kg BID PO): 2.32 ± 0.21 | significant disease onset ([2]; 30 mg/kg BID PO, vehicle day 12): 15 days | EAE clinical score (0-5) ([2]; 30 mg/kg BID PO): 1.5 ± 0.27 | body weight loss in EAE ([2]; maintained for the duration of study): significant reductions in body weight loss | ear thickness ([3]; 25 mg/kg PO): 0.163 ± 0.002 mm | ear thickness ([3]; 50 mg/kg PO): 0.156 ± 0.001 mm | ear thickness ([3]; 100 mg/kg PO): 0.143 ± 0.002 mm | Th17-cytokine gene expression in ear skin ([3]; 50 and 100 mg/kg dosed groups): reduced | Bclxl expression in skin tissues ([3]; oral administration, IMQ model): significantly reduced | tumor concentration ([4]; in combination with gemcitabine): 222 pmol/g | tumor concentration ([4]; single agent): 47 pmol/g | Bclxl expression in the thymus [5]: modulation of Bclxl expression in the thymus
